Literature values in US7235556B2, “Methods of treating dry eye disorders” (Alcon, Inc., priority 2003, dated 2007).

Tested on: allergic dermal inflammation
Conditions: guinea pig model of eczema; reported in the background section

## CC(C)(C(=O)O)c1cn2nc(NCCCN3CCC(OC(c4ccccc4)c4ccccc4)CC3)ccc2n1.O.O [TAK-427, 2-[6-[[3-[4-(diphenylmethoxy)piperidino]propyl]amino]imidazo[1,2-b]pyridazin-2-yl]2-methylpropionic acid dihydrate]
  inhibition of allergic dermal inflammation: inhibit allergic dermal inflammation
